The assay deals with male Wister strain rats. The assay can be described thus: Test Example 1: change in blood pressure of rats on presentation of aromatic compositions to the nostril. In kind it is in vivo. The following applies: rat, aroma presented to vicinity of nostril for 10 minutes, 30 minutes after the presentation, FIG. 1. As for the experimental part: Focusing attention on aromatic components contained in a Melissa essential oil, one of plant essential oils, various aromatic compositions were presented to male Wister strain rats, and evaluation of change in caudal arterial pressure before and after the presentation was conducted. The test was carried out under conditions that avoid stress which may be placed on the rat as less as possible, and thus can be kept calm in an environment of the measurement of the blood pressure.
Male Wister strain rats of 7-week old were purchased, and after one week acclimatization period, the blood pressure was measured on 8-week old. All experimental animals were kept under a 12:12 light-dark cycle (light period: from 8 AM to 8 PM), with allowing for free access to chow and drinking water.
Training for adaptation of the 7-week old rat to a holder for the blood pressure measurement was carried out for one week. […]
For three days after completing the training, change in the blood pressure was measured upon presentation of the aromatic composition to the rats. […] The blood pressures before and after 30 minutes from presenting the aromatic compositions were measured, and the changes of the blood pressures were compared. […]

As for `C=CC(C)(O)CCC=C(C)C` (centres unmarked) [linalool], the “change in diastolic blood pressure (caudal arterial pressure) after presentation compared with the values before the presentation” value is on record as “lowering of the blood pressure”. The value for `CC(C)=CCCC(C)=CC=O` [citral] was “lowering of the blood pressure”.

(Values after patent US20100216891A1, “AROMATIC ANTIHYPERTENSIVE AGENT, AND METHOD FOR LOWERING BLOOD PRESSURE IN MAMMALS” (PANASONIC CORPORATION, priority 2008, published 2010).)
